According to PMC4139341 (PLoS ONE, 2014):

How the values were obtained:
AChE = AChE (Electrophorus electricus, UniProt O42275); test: biochemical
Experimental: The modified method of Ellman et al. was adopted to measure AChE activity. Briefly, 25 µl (0.3 U/ml) AChE from Electric eel fish (Electrophorus electricus) was incubated with and without different concentrations of drugs selected from Molecular Docking studies. The reaction was carried out for 15 min at 25°C. […] Total volume of the reaction was made up to 1 ml by Tris buffer, pH 8.0. ATCI hydrolysis was measured by colored product formation, 5-thio-2-nitrobenzoate anion by reaction between DTNB and thiocholine, a hydrolysis product of ATCI. The formation of the colored product was measured at 405 nm wavelength after 30 min. The background was determined from negative controls (omission of AChE enzyme).
(§1) Lineweaver-Burk double reciprocal plot was plotted in order to determine the Km. […] The Ki was calculated directly from IC50 value using Cheng-Prussoffs classical equation [45]. [drawing 1]
(§2) The reciprocals of reaction rate (1/v) for each inhibitor concentration were plotted against the reciprocals of the substrate concentrations (1/S).

glycation of Aβ13–22 = glycation of Aβ13–22 (Homo sapiens, UniProt P05067); details: excitation 370 nm, emission 440 nm; 0.1 M glucose, 7 days
Experimental: The details of insulin and BSA glycation are described in Method S1. […] These samples were further used to study glycation mediated Aβ aggregation by different assays.
Glycation associated fluorescence of Aβ was measured in amyloid, glycated amyloid treated with or without protryptiline at 370 nm excitation and emission was scanned from 400–550 nm.

[1] = target: glycation of BSA (Bovine Serum Albumin) (Bos taurus, UniProt P02769); details: AGE fluorescence and Thioflavin T fluorescence
Experimental: (§3) 1.5mg/ml insulin and 0.1 M glucose were incubated with various concentrations of protryptiline in 10 mM PBS, pH 7.0 for 7 days. These samples were further used to study glycation inhibition by MALDI. BSA glycation reaction was performed in a similar manner with 1mg/ml BSA concentration and inhibition was studied by AGE fluorescence and Thioflavin T assay ^1.

glycation of insulin = glycation of insulin (Homo sapiens, UniProt P01308); details: MALDI; 500 µM and 1000 µM protriptyline
Experimental: as §3

BACE-1 = BACE-1 (Homo sapiens, UniProt P56817); test: biochemical
Experimental: BACE-1 activity was studied in accordance with the manufacturer's instructions (Sigma). […] Negative control included all the reactants except BACE-1 enzyme. After 2 h, fluorescence emission was measured at 405 nm upon excitation at 320 nm.
as §1, §2

Bovine trypsin = Bovine trypsin (Bos taurus, UniProt P00760); details: 0.1 and 0.5 mM
Experimental: Activity of Bovine trypsin was estimated using enzyme-specific chromogenic substrate BApNA [46]. […] Further, 1 ml BApNA was added to the reaction mixture and incubated for 10 min at 37°C. The reaction was terminated by addition of 200 µl of 30% acetic acid and absorbance was measured at 410 nm.

ADAM17 = ADAM17 (Homo sapiens, UniProt P78536); test: biochemical; details: read-out: inhibition of ADAM 17
Experimental: Fluorescence was measured at 328 nm and 420 nm for excitation and emission respectively.

Aβ13–22 [2] = target: T1, Aβ13–22 (Homo sapiens, UniProt P05067); test: biochemical
Experimental: (§4) Aβ13–22 peptide ([…]), the aggregation prone region of Aβ, was synthesized from Thermo Fisher Scientific. Synthetic Aβ13–22 peptide was dissolved in 10% ammonium hydroxide and sonicated for 5 min. It was then diluted in 10 mM PBS, pH 7.0 to a final concentration of 200 µM.
Thioflavin T assay was performed on 7th day of incubation. 50 µl (25 µM) of Aβ13–22 was mixed with 150 µl of Thioflavin T (ThT) stock solution (50 µM ThT in PBS pH 7.0) and placed in 96-well plate (black with flat bottom, Cornings). Fluorescence emission was measured at 460–550 nm upon excitation at 440 nm. To account for background fluorescence, the fluorescence intensity measured from each control solution without Aβ was subtracted from each solution containing Aβ13–22.

[3] = target: AChE activity in neuro2a cells (Mus musculus, UniProt P21836); details: 25 µM and 60 µM protriptyline
Experimental: Murine neuro2a neuroblastoma cells were obtained from National Center for Cell Science, Pune, India. The cells were maintained in Dulbecco's modified Eagle's medium (DMEM) and 10% Fetal Bovine Serum (FBS). Cells were maintained at 37°C in humidified air containing 5% CO2 and were grown in monolayer cultures.

Aβ13–22 [4] = target: T1, Aβ13–22
Experimental: as §4
Inhibition of aggregation/ glycation mediated aggregation of Aβ was detected by static light scattering method using a Perkin-Elmer Luminescence spectrometer LS50B. Both excitation and emission wavelengths were set at 400 nm. Excitation and emission slit width was set to 10 nm and 2.5 nm, respectively. Scattering was recorded for 60 sec.

Aβ13–22 [5] = target: T1, Aβ13–22; details: incubated 7 days, protriptyline 0.010 mM; ∼400 nm average without
Experimental: as §4

Chain of BACE-1 (P56817 46-501): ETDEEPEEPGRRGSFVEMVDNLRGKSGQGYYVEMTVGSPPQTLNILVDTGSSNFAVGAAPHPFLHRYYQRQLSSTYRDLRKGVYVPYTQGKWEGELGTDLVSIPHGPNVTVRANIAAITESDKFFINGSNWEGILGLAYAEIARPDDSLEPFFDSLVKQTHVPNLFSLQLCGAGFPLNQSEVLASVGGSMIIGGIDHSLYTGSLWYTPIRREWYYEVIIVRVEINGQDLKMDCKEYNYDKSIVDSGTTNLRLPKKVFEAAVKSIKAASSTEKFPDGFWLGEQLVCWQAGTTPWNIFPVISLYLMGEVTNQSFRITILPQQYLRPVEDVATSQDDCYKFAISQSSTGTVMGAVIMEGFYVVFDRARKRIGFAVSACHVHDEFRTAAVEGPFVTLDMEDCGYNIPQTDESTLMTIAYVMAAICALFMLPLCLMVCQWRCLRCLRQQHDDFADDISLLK
Chain of ADAM17 (P78536 215-824, species assumed): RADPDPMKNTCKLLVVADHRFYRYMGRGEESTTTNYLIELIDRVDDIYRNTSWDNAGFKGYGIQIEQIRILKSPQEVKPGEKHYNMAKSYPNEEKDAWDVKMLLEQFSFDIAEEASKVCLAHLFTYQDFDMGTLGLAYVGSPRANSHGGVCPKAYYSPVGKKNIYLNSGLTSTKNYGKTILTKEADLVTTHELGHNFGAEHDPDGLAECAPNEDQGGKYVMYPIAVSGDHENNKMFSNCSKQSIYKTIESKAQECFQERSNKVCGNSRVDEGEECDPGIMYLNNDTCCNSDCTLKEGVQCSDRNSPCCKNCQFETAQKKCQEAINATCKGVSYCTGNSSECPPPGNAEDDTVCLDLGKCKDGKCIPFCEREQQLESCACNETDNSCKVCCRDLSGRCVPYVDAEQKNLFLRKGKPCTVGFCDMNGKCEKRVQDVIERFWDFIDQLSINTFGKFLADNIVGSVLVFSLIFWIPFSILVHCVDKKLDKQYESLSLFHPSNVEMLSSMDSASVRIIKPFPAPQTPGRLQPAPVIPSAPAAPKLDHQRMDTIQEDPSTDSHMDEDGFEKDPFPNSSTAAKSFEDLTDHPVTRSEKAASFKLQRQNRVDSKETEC
Chain of AChE (O42275 24-633): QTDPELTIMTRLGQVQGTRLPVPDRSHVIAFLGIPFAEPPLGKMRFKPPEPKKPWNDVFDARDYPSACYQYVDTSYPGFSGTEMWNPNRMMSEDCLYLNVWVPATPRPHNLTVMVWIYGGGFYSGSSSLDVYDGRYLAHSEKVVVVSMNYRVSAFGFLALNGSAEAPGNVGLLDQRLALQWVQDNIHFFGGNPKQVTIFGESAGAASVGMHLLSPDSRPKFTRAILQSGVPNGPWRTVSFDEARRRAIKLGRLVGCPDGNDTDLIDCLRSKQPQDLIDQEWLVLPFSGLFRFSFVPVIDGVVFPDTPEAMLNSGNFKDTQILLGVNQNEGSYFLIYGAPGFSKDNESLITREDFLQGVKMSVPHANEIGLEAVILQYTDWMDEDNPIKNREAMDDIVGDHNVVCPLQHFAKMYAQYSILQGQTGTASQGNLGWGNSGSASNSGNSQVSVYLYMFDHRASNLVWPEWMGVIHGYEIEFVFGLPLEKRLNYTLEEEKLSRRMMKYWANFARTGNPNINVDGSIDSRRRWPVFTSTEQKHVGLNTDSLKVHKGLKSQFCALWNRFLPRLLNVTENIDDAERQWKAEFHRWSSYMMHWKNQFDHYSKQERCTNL
Chain of AChE activity in neuro2a cells (P21836 32-614): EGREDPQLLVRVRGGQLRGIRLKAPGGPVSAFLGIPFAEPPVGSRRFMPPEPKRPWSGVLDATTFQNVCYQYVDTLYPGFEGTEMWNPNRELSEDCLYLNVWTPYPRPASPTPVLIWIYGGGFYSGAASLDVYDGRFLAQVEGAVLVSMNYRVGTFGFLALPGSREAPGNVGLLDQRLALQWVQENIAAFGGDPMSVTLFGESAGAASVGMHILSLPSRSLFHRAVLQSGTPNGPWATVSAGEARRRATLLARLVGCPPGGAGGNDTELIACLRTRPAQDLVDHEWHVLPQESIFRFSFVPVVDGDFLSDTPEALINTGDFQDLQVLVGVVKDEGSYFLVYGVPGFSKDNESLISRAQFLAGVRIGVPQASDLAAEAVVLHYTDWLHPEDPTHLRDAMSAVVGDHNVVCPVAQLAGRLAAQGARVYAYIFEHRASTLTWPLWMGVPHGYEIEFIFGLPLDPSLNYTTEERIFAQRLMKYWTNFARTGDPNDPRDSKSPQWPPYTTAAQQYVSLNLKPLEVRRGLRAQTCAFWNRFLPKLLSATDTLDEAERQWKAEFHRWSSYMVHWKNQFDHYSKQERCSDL
Chain of Bovine trypsin (P00760 24-246): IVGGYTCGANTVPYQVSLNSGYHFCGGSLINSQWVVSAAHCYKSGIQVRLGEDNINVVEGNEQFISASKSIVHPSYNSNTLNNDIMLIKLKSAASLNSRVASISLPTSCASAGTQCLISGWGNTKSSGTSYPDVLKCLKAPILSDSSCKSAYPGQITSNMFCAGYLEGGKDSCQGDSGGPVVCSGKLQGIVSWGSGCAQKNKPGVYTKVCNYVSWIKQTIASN
Chain of glycation of BSA (Bovine Serum Albumin) (P02769 25-607): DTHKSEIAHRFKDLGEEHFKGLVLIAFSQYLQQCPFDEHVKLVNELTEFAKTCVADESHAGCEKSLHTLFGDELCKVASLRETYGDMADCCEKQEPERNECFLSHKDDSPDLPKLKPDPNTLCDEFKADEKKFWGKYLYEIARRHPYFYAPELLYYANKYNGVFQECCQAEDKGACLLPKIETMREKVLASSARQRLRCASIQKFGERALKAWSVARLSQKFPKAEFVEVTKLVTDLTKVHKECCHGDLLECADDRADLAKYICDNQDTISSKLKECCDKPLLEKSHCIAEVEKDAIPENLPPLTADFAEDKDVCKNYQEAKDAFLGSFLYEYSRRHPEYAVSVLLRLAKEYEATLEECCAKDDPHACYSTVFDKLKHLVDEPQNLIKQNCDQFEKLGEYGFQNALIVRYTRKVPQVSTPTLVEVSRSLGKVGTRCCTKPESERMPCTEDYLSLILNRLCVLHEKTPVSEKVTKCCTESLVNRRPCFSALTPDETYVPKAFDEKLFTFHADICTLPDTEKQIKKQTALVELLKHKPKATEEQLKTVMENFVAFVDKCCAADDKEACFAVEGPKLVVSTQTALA
Chain of glycation of insulin (P01308 25-54 limits assumed): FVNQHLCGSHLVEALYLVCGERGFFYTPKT

## CN(C)CCC=C1c2ccccc2CCc2ccccc21 [amitriptyline]
AChE
  IC50: 600 µM

## CNCCC=C1c2ccccc2CCc2ccccc21 [nortriptyline]
AChE
  IC50: 135 µM

## CNCCCC1c2ccccc2C=Cc2ccccc21 [protriptyline]
Glycation of Aβ13–22
  glycation associated fluorescence of Aβ: reduced by protriptyline in a concentration dependent manner
[1]
  glycation of BSA: inhibited glycation
Glycation of insulin
  glycation of insulin: inhibited glycation of insulin
BACE-1
  Ki: 5 µM
BACE-1; IC50 for BACE1, summary statement
  IC50: < 150 µM
BACE-1; IC50 for BACE-1, 2 h at 37°C
  IC50: ~25 µM
BACE-1; Lineweaver-Burk plot, 15 µM protriptyline
  type of BACE-1 inhibition: competitive inhibition
Bovine trypsin
  inhibition of trypsin activity: not able to inhibit trypsin activity
ADAM17
  inhibition at 100 µM: ~3%
  inhibition at 500 µM: ~25%
Aβ13–22 [2]
  IC50: < 150 µM
  Thioflavin T fluorescence of Aβ13–22: Concentration dependent decrease in Thioflavin T fluorescence
  lag time of nucleation phase of Aβ13–22 aggregation (ThT fluorescence): ~50 h
[3]
  AChE activity in neuro2a cells: concentration dependent decrease in AChE activity
Aβ13–22 [4]
  light scattering of Aβ aggregates: reduced the light scattering in a concentration dependent manner
Aβ13–22 [5]
  height of Aβ13–22 aggregates (AFM): ~100 nm
